The target of this assay is Tyrosine-protein kinase JAK1 (Homo sapiens, UniProt P23458). The assay is described as follows: Inhibition of JAK1 (unknown origin) preincubated for 20 mins followed by 33P-ATP addition and measured after 2 hrs by filter binding assay.

Each structure is given as a SMILES string.

Tyrosine-protein kinase JAK1, sequence (P23458 whole entry): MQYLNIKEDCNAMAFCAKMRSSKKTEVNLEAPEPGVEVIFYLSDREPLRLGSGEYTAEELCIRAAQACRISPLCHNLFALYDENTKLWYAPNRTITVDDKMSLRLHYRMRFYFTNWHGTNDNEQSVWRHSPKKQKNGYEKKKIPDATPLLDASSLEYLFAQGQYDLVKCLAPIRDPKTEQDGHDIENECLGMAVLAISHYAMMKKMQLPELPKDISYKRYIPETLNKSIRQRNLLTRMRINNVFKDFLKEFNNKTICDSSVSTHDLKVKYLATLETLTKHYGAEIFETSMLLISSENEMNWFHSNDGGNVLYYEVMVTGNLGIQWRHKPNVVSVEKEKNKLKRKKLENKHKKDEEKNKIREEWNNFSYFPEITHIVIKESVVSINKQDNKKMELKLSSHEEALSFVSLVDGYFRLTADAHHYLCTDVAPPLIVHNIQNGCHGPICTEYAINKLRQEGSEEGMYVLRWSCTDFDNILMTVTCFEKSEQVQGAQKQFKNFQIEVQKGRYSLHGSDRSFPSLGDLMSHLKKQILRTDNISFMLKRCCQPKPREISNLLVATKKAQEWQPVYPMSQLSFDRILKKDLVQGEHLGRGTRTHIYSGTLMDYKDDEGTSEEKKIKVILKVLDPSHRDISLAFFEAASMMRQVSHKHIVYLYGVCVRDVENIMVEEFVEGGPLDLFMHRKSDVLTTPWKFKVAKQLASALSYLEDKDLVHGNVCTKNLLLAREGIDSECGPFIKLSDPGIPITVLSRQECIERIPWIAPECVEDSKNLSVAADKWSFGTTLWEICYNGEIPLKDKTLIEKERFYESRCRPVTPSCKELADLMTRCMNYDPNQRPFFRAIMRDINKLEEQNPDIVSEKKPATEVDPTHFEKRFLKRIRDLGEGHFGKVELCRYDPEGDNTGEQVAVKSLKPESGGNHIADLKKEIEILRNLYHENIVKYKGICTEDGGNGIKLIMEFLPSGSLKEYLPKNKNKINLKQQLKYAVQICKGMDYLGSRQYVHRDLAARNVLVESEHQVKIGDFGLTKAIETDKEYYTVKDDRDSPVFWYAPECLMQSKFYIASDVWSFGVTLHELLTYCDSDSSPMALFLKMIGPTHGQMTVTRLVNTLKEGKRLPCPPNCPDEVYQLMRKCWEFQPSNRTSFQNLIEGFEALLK

A word on the IC50: it is the midpoint of a concentration-inhibition curve. A low value points to greater potency. `N#CC1CCCC1n1cc(C(N)=O)c(Nc2ccc3c(c2)C=CB(O)O3)n1` (stereo unspecified) displayed an IC50 of under 10 nM.
For `N#CC1CCOCC1n1cc(C(N)=O)c(Nc2ccc3c(c2)C2CC2B(O)O3)n1` (stereo unspecified) the value was under 10 nM.
The compound `N#CC1CCOCC1n1cc(C(N)=O)c(Nc2ccc3c(c2)C(Cl)=CB(O)O3)n1` (stereo unspecified) yielded an IC50 of under 10 nM.
`N#CC1CCCC1n1cc(C(N)=O)c(Nc2ccc3c(c2)COB3O)n1` (stereo unspecified): the IC50 was under 10 nM.
`N#CC1CCOCC1n1cc(C(N)=O)c(Nc2cc(Cl)c3c(c2)COB3O)n1` (stereo unspecified) returned a concentration for half-maximal inhibition (IC50) of under 10 nM.
The compound `N#CC1CCOCC1n1cc(C(N)=O)c(Nc2cc(F)c3c(c2)COB3O)n1` (stereo unspecified) showed an IC50 of under 10 nM.
